One test deals with EGFR1 (HER-1) (Homo sapiens (Human), UniProt P00533). The experiment in a line: EGFR1 (HER-1) enzyme assay, fluorescence polarization. It counts as biochemical. As to conditions: 100 μM ATP, poly(Glu, Tyr) substrate.
The subject of test [1] is colon and rectal cancer cell line, SW-620. In words: Inhibitory effect on growth of cancer cell line SW-620, SRB. In kind it is cell-based. As to conditions: Homo sapiens, 72 h, not having overexpressed EGFR and EGFR2. In a few lines:
(§1)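 Cells were cultured in DMEM with 10% FBS. Compounds were applied at 10 μM with 10-fold serial dilution to 10^−4, DMSO <1%, for 72 h at 37 °C. Cells were then TCA-fixed and stained with 0.4% SRB, and absorbance was read at 570 nm after solubilisation in 10 mM Tris base.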

Test [2] relates to skin cancer cell line, A431. The experiment in a line: Inhibitory effect on growth of cancer cell line A431, SRB. In kind it is cell-based. As to conditions: Homo sapiens, A-431, 72 h, overexpressed EGFR1 (HER-1). In a few lines: as §1
The target of another test is VEGFR2 (KDR) (Homo sapiens (Human), UniProt P35968). The experiment in a line: VEGFR2 (KDR) enzyme assay, fluorescence polarization. It counts as biochemical. As to conditions: 5 μM ATP, poly(Glu, Tyr) substrate. As for the experimental part: VEGFR2 (KDR, Proquinase) enzyme assay (auto-phosphorylation assay) was carried out by using Tyrosine Kinase Assay Kit Green (Panvera). The entire assay was conducted in accordance with VEGFR PTK inhibitor cellular activity test S.O.P.
Chain of VEGFR2 (KDR) (P35968 20-1356): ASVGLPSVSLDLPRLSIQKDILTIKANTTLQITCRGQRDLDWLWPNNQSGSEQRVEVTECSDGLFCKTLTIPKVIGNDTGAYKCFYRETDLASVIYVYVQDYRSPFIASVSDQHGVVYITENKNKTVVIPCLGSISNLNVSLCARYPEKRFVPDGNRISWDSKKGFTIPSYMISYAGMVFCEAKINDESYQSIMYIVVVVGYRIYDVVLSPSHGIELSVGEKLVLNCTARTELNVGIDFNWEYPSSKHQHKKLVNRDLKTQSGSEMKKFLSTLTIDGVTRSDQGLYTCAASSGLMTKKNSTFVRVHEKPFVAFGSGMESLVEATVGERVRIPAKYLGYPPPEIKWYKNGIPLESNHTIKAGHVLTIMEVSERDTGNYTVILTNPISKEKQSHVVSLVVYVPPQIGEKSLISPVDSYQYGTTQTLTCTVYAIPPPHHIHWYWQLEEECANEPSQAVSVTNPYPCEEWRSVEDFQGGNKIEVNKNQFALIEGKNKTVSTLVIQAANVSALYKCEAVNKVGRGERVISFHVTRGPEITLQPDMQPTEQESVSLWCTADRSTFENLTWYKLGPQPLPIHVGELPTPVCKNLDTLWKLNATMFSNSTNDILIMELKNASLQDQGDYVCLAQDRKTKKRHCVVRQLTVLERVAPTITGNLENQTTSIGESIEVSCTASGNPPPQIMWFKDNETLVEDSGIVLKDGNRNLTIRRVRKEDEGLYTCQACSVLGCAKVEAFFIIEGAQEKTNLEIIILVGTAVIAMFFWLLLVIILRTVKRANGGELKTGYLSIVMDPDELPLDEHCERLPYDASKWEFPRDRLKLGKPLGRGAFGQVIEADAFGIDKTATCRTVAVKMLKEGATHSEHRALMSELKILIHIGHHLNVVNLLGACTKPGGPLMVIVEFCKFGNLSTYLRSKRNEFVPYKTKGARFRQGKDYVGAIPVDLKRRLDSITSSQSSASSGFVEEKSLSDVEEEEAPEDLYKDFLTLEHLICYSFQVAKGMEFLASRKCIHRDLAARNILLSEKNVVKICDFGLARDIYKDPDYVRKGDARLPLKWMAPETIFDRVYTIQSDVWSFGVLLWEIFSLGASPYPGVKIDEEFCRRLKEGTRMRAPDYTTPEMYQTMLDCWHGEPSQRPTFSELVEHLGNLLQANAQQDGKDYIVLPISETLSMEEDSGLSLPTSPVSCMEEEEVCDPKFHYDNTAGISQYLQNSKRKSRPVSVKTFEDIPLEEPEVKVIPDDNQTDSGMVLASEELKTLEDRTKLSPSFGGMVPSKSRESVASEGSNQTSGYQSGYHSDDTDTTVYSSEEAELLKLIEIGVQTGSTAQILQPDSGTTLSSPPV
A typical kinase inhibition reaction requires a protein tyrosine kinase, a suitable buffer solution system, a peptide substrate and ATP. In the present VEGFR tyrosine kinase assay, a buffer solution system containing 20 mM HEPES (pH 7.4), 5 mM MgCl2 and 2 mM MnCl2; 50 μM Na3VO4; 200 ng/10 μl VEGFR (Proquinase); 5 μM ATP; and 10 ng/ml poly(Glu, Tyr) (4:1, Sigma) as a substrate were used.
The compounds of Test Example 1 were used as control compounds at a concentration of 0.0001 to 10 μM. After 10 min, 10 μl of poly(Glu, Tyr) as a substrate was added to each well, and 10 μl of ATP was added thereto to initiate kinase reaction. The plate was incubated at room temperature for 1 hour, and 10 μl of 100 mM EDTA was added to each well to terminate the kinase reaction.
The added EDTA was mixed for 5 min. Thereafter, 10 μl of 10× anti-phosphotyrosine antibody (Panvera), 10 μl of 10×PTK Green Tracer (Panvera) and 30 μl of FP dilution buffer (Panvera) were added thereto, and the plate was incubated in a dark room at room temperature for 30 min.
A general note: In fluorescence polarisation assays a small probe gives low polarisation when free and higher when bound to something large.

In test [3] the test system is breast cancer cell line, SK-Br3. The experiment in a line: Inhibitory effect on growth of cancer cell line SK-Br3, SRB. It counts as cell-based. As to conditions: Homo sapiens, SK-BR-3, 72 h, overexpressed EGFR2 (HER-2). In a few lines:
as §1

Test [4] deals with Human Umbilical Vein Endothelial Cell (HUVEC). The experiment in a line: Inhibitory effect on growth of human umbilical vein endothelial cell (HUVEC), MTS. It counts as cell-based. As to conditions: Homo sapiens, 96 h, 10 ng/ml VEGF, absorbance 490 nm.

Drawing on patent publication US8846699B2, “Quinazoline derivatives as a multiplex inhibitor and method for the preparation thereof” (Hanmi Pharm. Co., Ltd., priority 2005, dated 2014), this text covers IC50 for 18 compounds.

One may read the IC50 as the concentration at which inhibition is half-maximal. A higher IC50 goes with lower potency.

Chain of EGFR1 (HER-1) (P00533 25-1210): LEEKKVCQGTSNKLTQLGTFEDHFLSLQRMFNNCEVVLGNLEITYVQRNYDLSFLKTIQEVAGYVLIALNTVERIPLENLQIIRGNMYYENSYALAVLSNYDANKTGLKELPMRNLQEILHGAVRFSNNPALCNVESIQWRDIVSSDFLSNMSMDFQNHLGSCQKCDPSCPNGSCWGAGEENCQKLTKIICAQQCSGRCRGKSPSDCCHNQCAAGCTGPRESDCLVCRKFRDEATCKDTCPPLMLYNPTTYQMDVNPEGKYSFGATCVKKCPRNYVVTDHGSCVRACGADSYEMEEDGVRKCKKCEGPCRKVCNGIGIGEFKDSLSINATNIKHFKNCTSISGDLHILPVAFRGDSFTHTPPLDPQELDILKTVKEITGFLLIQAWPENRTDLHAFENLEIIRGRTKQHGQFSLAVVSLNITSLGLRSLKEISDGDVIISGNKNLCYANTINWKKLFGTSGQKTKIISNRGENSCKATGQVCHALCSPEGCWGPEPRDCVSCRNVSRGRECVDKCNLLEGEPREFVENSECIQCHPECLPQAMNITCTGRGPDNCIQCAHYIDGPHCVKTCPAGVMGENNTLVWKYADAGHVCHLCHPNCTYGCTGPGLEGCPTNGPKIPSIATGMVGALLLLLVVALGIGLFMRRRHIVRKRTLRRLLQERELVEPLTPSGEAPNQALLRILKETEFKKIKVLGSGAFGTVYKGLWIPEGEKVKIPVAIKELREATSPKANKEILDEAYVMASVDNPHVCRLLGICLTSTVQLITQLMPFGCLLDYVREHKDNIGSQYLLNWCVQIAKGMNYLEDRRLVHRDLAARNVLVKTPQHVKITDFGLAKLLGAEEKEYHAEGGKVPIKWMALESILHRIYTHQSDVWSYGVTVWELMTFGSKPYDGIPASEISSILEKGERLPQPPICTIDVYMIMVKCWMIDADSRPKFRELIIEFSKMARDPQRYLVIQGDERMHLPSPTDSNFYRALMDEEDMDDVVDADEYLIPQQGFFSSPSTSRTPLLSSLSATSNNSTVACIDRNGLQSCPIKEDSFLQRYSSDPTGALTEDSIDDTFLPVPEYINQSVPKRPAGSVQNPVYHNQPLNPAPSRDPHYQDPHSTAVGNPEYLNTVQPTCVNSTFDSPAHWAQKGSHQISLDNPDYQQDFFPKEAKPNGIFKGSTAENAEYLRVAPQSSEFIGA

For `C=CC(=O)Nc1cc2c(Nc3ccc(Br)cc3F)ncnc2cc1OCCNC(C)=O` [Example 18, N-[7-(2-acetylamino-ethoxy)-4-(4-bromo-2-fluoro-phenylamino)-quinazolin-6-yl]-acrylamide], the half-maximal inhibitory concentration (IC50) against EGFR1 (HER-1) was 2 nM; in test [1], 8070 nM; in test [2], 15 nM; at VEGFR2 (KDR) it was 96 nM; in test [3], 137 nM; in test [4], 52 nM.

Regarding `C=CC(=O)Nc1cc2c(Nc3ccc(Br)cc3F)ncnc2cc1OCCN(C)C` [Example 19, N-[4-(4-bromo-2-fluoro-phenylamino)-7-(2-dimethylamino-ethoxy)-quinazolin-6-yl]-acrylamide], the IC50 against EGFR1 (HER-1) was 9 nM; in test [1], 10000 nM; in test [2], 39 nM; at VEGFR2 (KDR), 450 nM; in test [3] it was 813 nM; in test [4], 350 nM.

As for `C=CC(=O)Nc1cc2c(Nc3ccc(Br)cc3F)ncnc2cc1OCCCCNC(C)=O` [Example 20, N-[7-(4-acetylamino-butoxy)-4-(4-bromo-2-fluoro-phenylamino)-quinazolin-6-yl]-acrylamide], the IC50 on EGFR1 (HER-1) worked out at 10 nM; in test [1], 10000 nM; in test [2], 45 nM; on VEGFR2 (KDR) it was 545 nM; in test [3], 1100 nM; in test [4], 682 nM.

With `C=CC(=O)Nc1cc2c(Nc3ccc(Br)cc3F)ncnc2cc1OCCNC(=O)C1CC1` [Example 21, cyclopropane carboxylic acid {2-[6-acrylamino-4-(4-bromo-2-fluoro-phenylamino)-quinazolin-7-yloxy]-ethyl}-amide], the IC50 amounted to 8 nM against EGFR1 (HER-1); 7900 nM in test [1]; 20 nM in test [2]; 513 nM at VEGFR2 (KDR); 36 nM in test [3]; 951 nM in test [4].

`C=CC(=O)Nc1cc2c(Nc3ccc(Br)cc3F)ncnc2cc1OCCNC(=O)C(F)F` [Example 22, N-{4-(4-bromo-2-fluoro-phenylamino)-7-[2-(2,2-difluoro-acetylamino)-ethoxy]-quinazolin-6-yl}-acrylamide]: the half-maximal inhibitory concentration (IC50) stood at 5 nM at EGFR1 (HER-1); 9780 nM in test [1]; 45 nM in test [2]; 523 nM on VEGFR2 (KDR); 92 nM in test [3]; 961 nM in test [4].

Regarding `C=CC(=O)Nc1cc2c(Nc3ccc(Br)cc3F)ncnc2cc1OCCNC(=O)NCC` [Example 23, N-{4-(4-bromo-2-fluoro-phenylamino)-7-[2-(3-ethyl-ureido)-ethoxy]-quinazolin-6-yl}-acrylamide], the IC50 on EGFR1 (HER-1) stood at 2 nM; in test [1], 8100 nM; in test [2] it was 15 nM; against VEGFR2 (KDR) it was 250 nM; in test [3], 38 nM; in test [4], 99 nM.

Regarding `C=CC(=O)Nc1cc2c(Nc3ccc(Br)cc3F)ncnc2cc1OCCNC(N)=O` [Example 24, N-[4-(4-bromo-2-fluoro-phenylamino)-7-(2-ureido-ethoxy)-quinazolin-6-yl]-acrylamide], the IC50 on EGFR1 (HER-1) amounted to 4 nM; in test [1], 7600 nM; in test [2], 40 nM; against VEGFR2 (KDR), 250 nM; in test [3], 75 nM; in test [4], 90 nM.

Turning to `C=CC(=O)Nc1cc2c(Nc3ccc(Br)cc3F)ncnc2cc1OCCNC(=O)CN(C)C` [Example 25, N-[4-(4-bromo-2-fluoro-phenylamino)-7-[2-(2-dimethylamino-acetylamino)-ethoxy]-quinazolin-6-yl]-acrylamide], the IC50 came to 2 nM against EGFR1 (HER-1); 5790 nM in test [1]; 16 nM in test [2]; 584 nM against VEGFR2 (KDR); 21 nM in test [3]; 786 nM in test [4].

With `C=CC(=O)NCCOc1cc2ncnc(Nc3ccc(Br)cc3F)c2cc1NC(=O)C=C` [Example 26, N-{2-[6-acryloylamino-4-(4-bromo-2-fluoro-phenylamino)-quinazolin-7-yloxy]-ethyl}-acrylamide], the IC50 at EGFR1 (HER-1) came out at 5 nM; in test [1] it was 10000 nM; in test [2] it was 49 nM; on VEGFR2 (KDR), 250 nM; in test [3] it was 80 nM; in test [4] it was 87 nM.

`C=CC(=O)Nc1cc2c(Nc3ccc(Br)cc3F)ncnc2cc1OCCNC(=O)CC` [Example 27, N-[4-(4-bromo-2-fluoro-phenylamino)-7-(2-propionylamino-ethoxy)-quinazolin-6-yl]-acrylamide]: the IC50 against EGFR1 (HER-1) turned out to be 3 nM; in test [1], 9560 nM; in test [2], 30 nM; against VEGFR2 (KDR) it was 250 nM; in test [3] it was 50 nM; in test [4], 96 nM.

Regarding `C=CC(=O)Nc1cc2c(Nc3ccc(Br)cc3F)ncnc2cc1OCCNC(=O)C(F)(F)F` [Example 28, N-[4-(4-bromo-2-fluoro-phenylamino)-7-[2-(2,2,2-trifluoro-acetylamino)-ethoxy]-quinazolin-6-yl]-acrylamide], the IC50 was found to be 23 nM against EGFR1 (HER-1); 9680 nM in test [1]; 76 nM in test [2]; 500 nM at VEGFR2 (KDR); 233 nM in test [3]; 977 nM in test [4].

Regarding `C=CC(=O)Nc1cc2c(Nc3ccc(Br)cc3F)ncnc2cc1OCCN` [Example 29, N-[7-(2-amino-ethoxy)-4-(4-bromo-2-fluoro-phenylamino)-quinazolin-6-yl]-acrylamide], the IC50 was 4 nM against EGFR1 (HER-1); 10000 nM in test [1]; 46 nM in test [2]; 545 nM on VEGFR2 (KDR); 145 nM in test [3]; 951 nM in test [4].

In the case of `C=CC(=O)Nc1cc2c(Nc3ccc(Br)cc3F)ncnc2cc1OCCNC` [Example 30, N-[4-(4-bromo-2-fluoro-phenylamino)-7-(2-methylamino-ethoxy)-quinazolin-6-yl]-acrylamide], the IC50 against EGFR1 (HER-1) stood at 96 nM; in test [1], 4530 nM; in test [2] it was 127 nM; on VEGFR2 (KDR) it was 513 nM; in test [3] it was 581 nM; in test [4] it was 964 nM.

Take `C=CCCOc1cc2ncnc(Nc3ccc(Br)cc3F)c2cc1NC(=O)C=C` [Example 31, N-[4-(4-bromo-2-fluoro-phenylamino)-7-but-3-enyloxy-quinazolin-6-yl]-acrylamide]: the IC50 on EGFR1 (HER-1) was determined as 90 nM; in test [1] it was 2530 nM; in test [2], 93 nM; on VEGFR2 (KDR) it was 523 nM; in test [3], 55 nM; in test [4], 686 nM.

For the compound `C=CC(=O)Nc1cc2c(Nc3ccc(Br)cc3F)ncnc2cc1OCCOC` [Example 32, N-[4-(4-bromo-2-fluoro-phenylamino)-7-(2-methoxy-ethoxy)-quinazolin-6-yl]-acrylamide], the IC50 against EGFR1 (HER-1) came out at 25 nM; in test [1], 4550 nM; in test [2], 31 nM; against VEGFR2 (KDR) it was 259 nM; in test [3] it was 198 nM; in test [4] it was 350 nM.

In the case of `C=CC(=O)Nc1cc2c(Nc3ccc(Br)cc3F)ncnc2cc1OCCNC(=O)NCCC` [Example 34, N-{4-(4-bromo-2-fluoro-phenylamino)-7-[2-(3-propyl-ureido)-ethoxy]-quinazolin-6-yl}-acrylamide], the IC50 came out at 26 nM against EGFR1 (HER-1); 2540 nM in test [1]; 35 nM in test [2]; 458 nM at VEGFR2 (KDR); 67 nM in test [3]; 678 nM in test [4].

Regarding `C=CC(=O)Nc1cc2c(Nc3ccc(Br)cc3F)ncnc2cc1OCCNC(=S)NC` [Example 35, N-{4-(4-bromo-2-fluoro-phenylamino)-7-[2-(3-methyl-thioureido)-ethoxy]-quinazolin-6-yl}-acrylamide], the IC50 on EGFR1 (HER-1) is 98 nM; in test [1], 9560 nM; in test [2], 90 nM; against VEGFR2 (KDR), 457 nM; in test [3] it was 225 nM; in test [4], 951 nM.

On to `C=CC(=O)Nc1cc2c(Nc3ccc(Br)cc3F)ncnc2cc1OCCNC(=S)NCC` [Example 36, N-{4-(4-bromo-2-fluoro-phenylamino)-7-[2-(3-ethyl-thioureido)-ethoxy]-quinazolin-6-yl}-acrylamide], for which the IC50 against EGFR1 (HER-1) was determined as 91 nM; in test [1], 722 nM; in test [2] it was 89 nM; on VEGFR2 (KDR), 354 nM; in test [3], 43 nM; in test [4], 389 nM.
